According to ChEMBL document CHEMBL1201862, “PubChem BioAssay data set” (2004):
The source made the active and inactive calls.

How the values were obtained:
[1] = DRD fibroblast viability loss – cell-based, non-viral oncogenic, luminescence, dose response (AID 1934); format: functional; conditions: Homo sapiens
Escherichia coli = assay: microbe, parasite or virus in culture
BJ [2] = assay: cells; format: functional, cell-based; conditions: Homo sapiens
BJ [3] = assay: BJ-TERT fibroblast viability loss – cell-based, RAS-independent, luminescence, dose response (AID 1933); format: functional; conditions: Homo sapiens
[4] = Luminescence Cell-Based Dose Retest to Confirm Inhibitors of Cancer Stem Cells. [Related pubchem assays (depositor defined):AID2717, AID2721]; format: functional; conditions: Homo sapiens
BJ [5] = assay: BJ-TERT-LT-ST fibroblast viability loss – cell-based, RAS-independent, luminescence, dose response (AID 1935); format: functional; conditions: Homo sapiens;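 note: BJ fibroblasts immortalized with TERT plus LT and ST oncogenes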
Streptococcus = assay: GAS UMAA2166 growth inhibition – luminescence, BacTiterGlo, counter-screen for streptokinase expression inhibitor project, dose response (AID 1915); format: functional, organism-based;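 note: potency for reduction of bacterial viability or growth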
Streptokinase A = biological target: T1, Streptokinase A (Streptococcus pyogenes serotype M1, UniProt P10520); assay: viability-normalized secreted streptokinase activity reduction – plasminogen activation absorbance, OD405, dose response (AID 1914); format: functional, Streptococcus pyogenes M1 GAS;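 note: secreted streptokinase activity via plasminogen activation per viability signal from cell pellet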
T1 sequence (P10520 whole entry): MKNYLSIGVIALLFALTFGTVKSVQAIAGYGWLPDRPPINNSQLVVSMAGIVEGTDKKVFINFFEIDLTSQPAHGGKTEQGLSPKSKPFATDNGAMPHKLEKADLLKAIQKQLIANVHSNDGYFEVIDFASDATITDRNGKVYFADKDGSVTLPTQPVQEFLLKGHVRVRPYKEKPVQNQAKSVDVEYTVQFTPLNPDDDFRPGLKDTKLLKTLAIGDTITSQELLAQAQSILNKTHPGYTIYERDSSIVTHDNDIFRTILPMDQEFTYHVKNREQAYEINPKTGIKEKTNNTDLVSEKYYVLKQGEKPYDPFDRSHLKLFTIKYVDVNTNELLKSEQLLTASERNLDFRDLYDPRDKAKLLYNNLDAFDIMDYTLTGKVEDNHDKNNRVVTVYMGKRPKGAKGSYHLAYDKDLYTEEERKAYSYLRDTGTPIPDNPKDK

BJ [6] = assay: growth inhibition of engineered Ras-driven BJ cells – cell-based, alamar blue fluorescence, cherrypicked samples, dose response (AID 2631); format: functional; conditions: Homo sapiens;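 note: confirmatory dose-response assay in RAS-dependent BJ fibroblasts engineered with TERT, LT and ST, with cytotoxicity read by fluorescence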
[7] = tested on: Streptococcus sp. 'group A'; assay: Streptococcus pyogenes SK(-)GAS viability under kanamycin – luminescence, BacTiterGlo, confirmation, counter-screen for streptokinase expression inhibitor project, dose response (AID 1900); format: functional, organism-based
Galanin receptor type 3 = Galanin receptor type 3 (Homo sapiens, UniProt O60755); assay: Fluorescence-based cell-based primary high throughput dose response assay to identify antagonists of the Galanin Receptor 3 (GalR3).; format: functional
cells [8] = format: functional, cell-based; conditions: HEK-CNG
Jurkat = assay: blockers of NF-kB activation in T cells – Jurkat, luciferase reporter, luminescence, B- and T-cell, dose response (AID 489004); format: functional, cell-based; conditions: Homo sapiens;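 note: NF-kB luciferase reporter Jurkat cells stimulated with PMA plus ionomycin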
[9] = HEK-293T viability loss, compound-treated – cell-based, uHTS hits, cytotoxicity control for B/T-cell NF-kB inhibitor project, dose response (AID 489019); format: functional;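 note: IC50 reflects cytotoxicity as loss of cell viability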
Paired box protein Pax-8 = Paired box protein Pax-8 (Homo sapiens, UniProt Q06710); assay: PAX8 transcriptional activity inhibition in RMG-I – RMG-I cells, luciferase, cherry-pick, dose response (AID 687027); format: functional, cell-based;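 note: luciferase reporter driven by Pax8 target thyroperoxidase promoter measured by SteadyGlo luminescence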
[10] = biological target: Heat shock protein HSP 90-alpha (Homo sapiens, UniProt P07900); format: functional, organism-based
[11] = biological target: T2, DNA repair protein RAD52 homolog (Homo sapiens, UniProt P43351); format: functional, biochemical
T2 sequence (P43351 whole entry): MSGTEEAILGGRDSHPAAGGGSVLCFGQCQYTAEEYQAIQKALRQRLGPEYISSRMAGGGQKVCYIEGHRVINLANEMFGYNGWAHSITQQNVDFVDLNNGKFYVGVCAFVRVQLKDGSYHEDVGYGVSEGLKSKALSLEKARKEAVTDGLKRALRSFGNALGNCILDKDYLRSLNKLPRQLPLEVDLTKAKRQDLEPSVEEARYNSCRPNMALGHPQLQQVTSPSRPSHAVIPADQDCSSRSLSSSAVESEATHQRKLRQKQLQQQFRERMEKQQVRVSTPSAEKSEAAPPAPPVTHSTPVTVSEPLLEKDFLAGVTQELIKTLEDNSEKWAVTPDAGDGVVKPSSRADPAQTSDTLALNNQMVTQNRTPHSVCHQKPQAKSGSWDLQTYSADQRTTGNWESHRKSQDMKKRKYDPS

INS1 = assay: INS-1E survival protection against cytokine death – cell-based, luminescence, retest, dose response (AID 449756); format: functional; conditions: Rattus norvegicus;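 note: cell death triggered by IL-1 beta plus TNF-alpha plus IFN-gamma mixture; protective hits raise ATP signal compared with cytokine alone wells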
HEK293 = assay: cells; format: functional, cell-based; conditions: Homo sapiens
[12] = biological target: Nuclear receptor subfamily 0 group B member 1 (Homo sapiens, UniProt P51843); assay: Luminescence-based cell-based high throughput dose response assay for inhibitors of the orphan nuclear receptor subfamily 0, group B, member 1 (DAX1; NR0B1). [Related pubchem assays (depositor defined):AID504766, AID504790]; format: functional
[13] = THP-1 cell cytotoxicity, dose response, cytotoxicity control for non-replicating M. tuberculosis project (AID 489025); format: functional
CHO = CHO cell viability loss, potency – luminescence, cytotoxicity control for TLR9-MyD88 binding inhibitor project, dose response (AID 588339); format: functional, cell-based, hamster; conditions: Cricetulus griseus;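 note: CHO cells stably coexpressing TLR9 and MyD88 fusions from primary screen; compound exposure lasted 48 hours before viability readout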
cells [14] = format: functional
[15] = biological target: T3, Microphthalmia-associated transcription factor (Homo sapiens, UniProt O75030); assay: reducers of TRPM1 reporter luminescence, concentration series – cell-based, SK-MEL-5, cherry-picked, set 3, MITF inhibitor project, dose response (AID 493073); format: functional;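 note: SK-MEL-5 melanoma cells with luciferase driven by the MITF target TRPM1 promoter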
T3 sequence (O75030 whole entry): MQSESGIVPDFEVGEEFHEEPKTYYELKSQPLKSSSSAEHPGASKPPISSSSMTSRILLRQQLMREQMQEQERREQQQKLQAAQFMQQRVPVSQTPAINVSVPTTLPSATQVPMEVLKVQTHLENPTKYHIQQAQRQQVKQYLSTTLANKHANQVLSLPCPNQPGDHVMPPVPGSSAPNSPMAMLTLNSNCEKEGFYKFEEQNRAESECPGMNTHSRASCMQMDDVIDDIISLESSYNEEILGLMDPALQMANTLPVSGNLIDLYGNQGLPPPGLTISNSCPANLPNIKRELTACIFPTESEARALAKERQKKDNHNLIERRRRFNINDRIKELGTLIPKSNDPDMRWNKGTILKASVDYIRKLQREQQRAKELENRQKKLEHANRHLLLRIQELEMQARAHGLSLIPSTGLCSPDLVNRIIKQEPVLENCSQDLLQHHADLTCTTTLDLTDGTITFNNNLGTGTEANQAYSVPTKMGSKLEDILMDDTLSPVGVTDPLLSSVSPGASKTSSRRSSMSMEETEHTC

A-375 [16] = assay: MITF: Counter assay: A375 proliferation Measured in Cell-Based System Using Plate Reader - 2084-03_Inhibitor_Dose_DryPowder_Activity. [Related pubchem assays (depositor defined):AID488944]; format: functional; conditions: Homo sapiens
[17] = non-specific 3'UTR reporter inhibition in Clone20-Shn3RL – cell-based, Renilla luciferase, cherry-picked, counter-screen for Shn3 inhibitor project, dose response (AID 624133); format: functional
[18] = biological target: T4, Heat shock factor protein 1 (Mus musculus, UniProt P38532); assay: enhancement of HSF1-driven luciferase signal – cell-based, NIH3T3, luminescence, dose retest, confirmation (AID 435004); format: functional;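 note: stress induced by proteasome inhibitor MG132 added 30 min after compound; luciferase reporter driven by HSF1 response element in NIH3T3 cells; actives raise luminescence as potentiators of the MG132 stress response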
T4 sequence (P38532 whole entry): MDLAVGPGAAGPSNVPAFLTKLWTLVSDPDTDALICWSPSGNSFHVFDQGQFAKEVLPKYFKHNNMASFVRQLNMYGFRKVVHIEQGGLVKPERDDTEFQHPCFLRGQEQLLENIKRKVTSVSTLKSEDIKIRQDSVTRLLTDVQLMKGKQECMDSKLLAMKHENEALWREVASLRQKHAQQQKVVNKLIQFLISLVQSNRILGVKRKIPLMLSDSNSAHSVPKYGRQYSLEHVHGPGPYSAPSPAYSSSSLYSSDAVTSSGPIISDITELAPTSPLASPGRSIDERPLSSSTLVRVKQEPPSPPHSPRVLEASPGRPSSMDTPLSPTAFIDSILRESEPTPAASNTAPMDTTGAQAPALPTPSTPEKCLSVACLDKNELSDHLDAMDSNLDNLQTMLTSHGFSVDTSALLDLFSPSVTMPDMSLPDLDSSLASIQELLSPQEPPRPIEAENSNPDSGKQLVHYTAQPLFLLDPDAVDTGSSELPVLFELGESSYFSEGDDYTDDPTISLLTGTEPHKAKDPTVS

[19] = reduction of Shn3 3'UTR-driven luciferase in osteoblasts – cell-based, Clone20 osteoblasts, firefly luciferase, cherry-picked, dose response (AID 624132); format: functional;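 note: firefly luciferase luminescence from reporter carrying the Shn3 3'UTR in osteoblasts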
A-375 [20] = assay: proliferation inhibition in MITF-low A375 cells – cell-based, cherry-pick samples, set 2, counter-screen for MITF modulator project, dose response (AID 540335); format: functional; conditions: Homo sapiens
Beta Lactamase = Beta Lactamase (Pseudomonas aeruginosa, UniProt Q932Y6); assay: BLA reporter interference, concentration series – BLA reporter cells, FRET fluorescence, artefact control for TLR9-MyD88 binding inhibitor project, dose response (AID 588341); format: cell-based;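 note: cell based assay in CHO-K1 cells stably expressing beta-lactamase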
[21] = loss of viability in HepG2 cells – cell-based, CellTiter-Glo, cherry-picked, cytotoxicity control for Shn3 inhibitor project, dose response (AID 624134); format: functional

Sequence of Nuclear receptor subfamily 0 group B member 1 (P51843 whole entry): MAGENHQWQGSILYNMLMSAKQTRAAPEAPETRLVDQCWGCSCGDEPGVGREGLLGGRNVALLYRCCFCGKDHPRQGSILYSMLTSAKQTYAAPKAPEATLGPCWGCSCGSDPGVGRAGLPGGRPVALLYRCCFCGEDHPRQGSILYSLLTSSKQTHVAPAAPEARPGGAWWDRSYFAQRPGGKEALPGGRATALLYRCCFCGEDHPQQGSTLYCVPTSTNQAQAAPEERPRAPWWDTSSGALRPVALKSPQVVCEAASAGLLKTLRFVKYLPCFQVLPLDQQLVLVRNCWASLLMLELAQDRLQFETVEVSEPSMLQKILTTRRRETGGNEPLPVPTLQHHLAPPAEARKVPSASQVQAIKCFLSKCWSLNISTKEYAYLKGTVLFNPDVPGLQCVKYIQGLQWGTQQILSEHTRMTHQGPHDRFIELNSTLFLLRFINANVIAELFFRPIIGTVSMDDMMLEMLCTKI
Sequence of Galanin receptor type 3 (O60755 whole entry): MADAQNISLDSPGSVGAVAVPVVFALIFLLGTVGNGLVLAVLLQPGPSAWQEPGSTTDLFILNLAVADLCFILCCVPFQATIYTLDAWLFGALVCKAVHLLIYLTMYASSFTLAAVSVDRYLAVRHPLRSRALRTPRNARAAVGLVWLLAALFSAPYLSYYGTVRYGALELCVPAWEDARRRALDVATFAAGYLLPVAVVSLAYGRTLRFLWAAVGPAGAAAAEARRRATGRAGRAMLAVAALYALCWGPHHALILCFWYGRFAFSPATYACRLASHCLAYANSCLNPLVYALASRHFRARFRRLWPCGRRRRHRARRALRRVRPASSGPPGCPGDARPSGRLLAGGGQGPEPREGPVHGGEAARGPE
Sequence of Beta Lactamase (Q932Y6 whole entry): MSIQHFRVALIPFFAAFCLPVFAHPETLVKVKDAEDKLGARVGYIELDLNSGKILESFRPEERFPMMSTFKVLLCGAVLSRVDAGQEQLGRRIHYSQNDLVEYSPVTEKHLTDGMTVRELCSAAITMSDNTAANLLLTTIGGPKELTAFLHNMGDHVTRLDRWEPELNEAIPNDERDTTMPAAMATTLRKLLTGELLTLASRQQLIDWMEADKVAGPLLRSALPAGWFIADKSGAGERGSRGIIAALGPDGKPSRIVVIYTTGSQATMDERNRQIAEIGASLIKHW
Sequence of Paired box protein Pax-8 (Q06710 whole entry): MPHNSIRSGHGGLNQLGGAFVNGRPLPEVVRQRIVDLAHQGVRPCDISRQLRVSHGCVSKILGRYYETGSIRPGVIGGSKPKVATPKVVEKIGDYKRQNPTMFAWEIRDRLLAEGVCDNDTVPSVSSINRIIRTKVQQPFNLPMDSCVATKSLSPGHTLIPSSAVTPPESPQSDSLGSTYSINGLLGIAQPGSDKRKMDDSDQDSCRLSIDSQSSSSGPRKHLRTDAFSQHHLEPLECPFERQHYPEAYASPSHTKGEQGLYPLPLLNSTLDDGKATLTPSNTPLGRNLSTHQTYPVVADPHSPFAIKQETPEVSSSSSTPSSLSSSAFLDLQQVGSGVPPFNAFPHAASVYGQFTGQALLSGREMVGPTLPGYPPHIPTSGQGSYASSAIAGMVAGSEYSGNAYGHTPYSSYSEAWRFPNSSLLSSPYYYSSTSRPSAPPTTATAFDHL

COCCNC(=O)c1cnc2ccc(S(=O)(=O)N3CCc4ccccc43)cc2c1O
EC50 [1]: 11.5 µM (active)
AC50 (Escherichia coli): 87.7 µM (active)
EC50 (BJ [2]): 7.76 µM (active)
EC50 (BJ [3]): > 150 µM (not active)
AC50 [4]: 2.32 µM (active)
EC50 (BJ [5]): > 150 µM (not active)

CCCCCCCCCCCCn1ccc(=N)cc1
EC50 (Streptococcus): 10.3 µM (active)
EC50 (Streptokinase A): 17.6 µM (active)
EC50 (BJ [6]): 0.949 µM (active)
EC50 [7]: 3.09 µM (active)
IC50 (Galanin receptor type 3): 1.28 µM (active)
EC50 [1]: 8.01 µM (active)
EC50 (cells [8]): > 29.9 µM (inactive)
IC50 (Jurkat): 0.92 µM (active)
IC50 [9]: 66.1 µM (inactive)
AC50 (Paired box protein Pax-8): 3.74 µM (active)
AC50 [10]: 10.8 µM (active)
EC50 (BJ [2]): 2.85 µM (inconclusive)
AC50 [11]: 14.8 µM (active)
EC50 (BJ [3]): 2.72 µM (active)
AC50 (INS1): 0.293 µM (active)
EC50 (BJ [5]): 5.37 µM (inconclusive)

Cc1cnc(C(=O)OCC(=O)NCCCc2ccccc2)cn1
IC50 (HEK293): > 67.5 µM (inactive)
IC50 [12]: > 67.5 µM (inactive)

CCOC(=O)COc1ccc2ccccc2c1/C=C/[N+](=O)[O-]
CC50 [13]: 19.1 µM (active)
IC50 (CHO): 2.72 µM (active)
IC50 (cells [14]): 2.81 µM (active)
AC50 [15]: 8.17 µM (active)
AC50 (A-375 [16]): > 35 µM (active)
AC50 [10]: 4.28 µM (active)
AC50 [17]: 12.9 µM (active)
EC50 [18]: 3.33 µM (inconclusive)
AC50 [19]: 5.2 µM (active)
AC50 (A-375 [20]): > 35 µM (active)
IC50 (Beta Lactamase): 30.5 µM (inactive)
AC50 (INS1): > 60 µM (inactive)
AC50 [21]: 20.9 µM (active)
